ChEMBL document CHEMBL1201862, “PubChem BioAssay data set” (2004)
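Values below derive from 48-hour exposures of cells grown in 96-well plates, with endpoints linearly interpolated between the two concentrations bracketing the appropriate inhibition level. GI50 marks 50% less growth.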 Active and inactive are the calls of the source. Rule as the data show it: active = GI50 up to about 1.1 µM and inactive = higher.

Tests used:
Assay in all cases: DTP human tumour cell line panel, 48 h
786-0 = tested on: 786-0
A498 = tested on: A498
A549 = tested on: A549
ACHN = tested on: ACHN
BT-549 = tested on: BT-549
CAKI-1 = tested on: CAKI-1
CCRF-CEM = tested on: CCRF-CEM
COLO 205 = tested on: COLO 205
DU-145 = tested on: DU-145
EKVX = tested on: EKVX
HCC 2998 = tested on: HCC 2998
HCT-116 = tested on: HCT-116
HCT-15 = tested on: HCT-15
HL-60 = tested on: HL-60
HOP-62 = tested on: HOP-62
HOP-92 = tested on: HOP-92
HT-29 = tested on: HT-29
Hs-578T = tested on: Hs-578T
IGROV-1 = tested on: IGROV-1
K562 = tested on: K562
KM12 = tested on: KM12
LOX IMVI = tested on: LOX IMVI
M14 = tested on: M14
MCF7 = tested on: MCF7
MDA-MB-231 = tested on: MDA-MB-231
MDA-MB-435 = tested on: MDA-MB-435
MDA-N = tested on: MDA-N
MOLT-4 = tested on: MOLT-4
Malme-3M = tested on: Malme-3M
NCI-H226 = tested on: NCI-H226
NCI-H23 = tested on: NCI-H23
NCI-H460 = tested on: NCI-H460
NCI-H522 = tested on: NCI-H522
NCI/ADR-RES = tested on: NCI/ADR-RES
OVCAR-3 = tested on: OVCAR-3
OVCAR-4 = tested on: OVCAR-4
OVCAR-5 = tested on: OVCAR-5
OVCAR-8 = tested on: OVCAR-8
PC-3 = tested on: PC-3
RPMI-8226 = tested on: RPMI-8226
RXF 393 = tested on: RXF 393
SF-268 = tested on: SF-268
SF-295 = tested on: SF-295
SF-539 = tested on: SF-539
SK-MEL-28 = tested on: SK-MEL-28
SK-MEL-2 = tested on: SK-MEL-2
SK-MEL-5 = tested on: SK-MEL-5
SK-OV-3 = tested on: SK-OV-3
SN12C = tested on: SN12C
SNB-19 = tested on: SNB-19
SNB-75 = tested on: SNB-75
SR = tested on: SR
SW-620 = tested on: SW-620
T47D = tested on: T47D
TK-10 = tested on: TK-10
U-251 = tested on: U-251
UACC-257 = tested on: UACC-257
UACC-62 = tested on: UACC-62
UO-31 = tested on: UO-31

`COc1cc2c(cc1OCCCC(=O)Nc1cc(C(=O)Nc3cc(C(=O)Nc4cc(C(=O)NCCCN(C)C)n(C)n4)n(C)c3)n(C)c1)N=CC1CCCN1C2=O` (configuration not stated) was tested, and the GI50 (786-0) was 22.3 µM (inactive), the GI50 (A498) was 29.2 µM (inactive) and the GI50 (A549) was 49.3 µM (inactive). For the same compound, the GI50 (ACHN) was 17.1 µM (inactive), the GI50 (BT-549) was 22.1 µM (inactive) and the GI50 (CAKI-1) was 25.1 µM (inactive). The GI50 (CCRF-CEM) was 4.31 µM (inactive), the GI50 (COLO 205) was 21.2 µM (inactive) and the GI50 (DU-145) was 32.1 µM (inactive). For the same compound, the GI50 (EKVX) was 74 µM (inactive), the GI50 (HCC 2998) was 28.1 µM (inactive) and the GI50 (HCT-116) was 51.4 µM (inactive). The GI50 (HCT-15) was 28.5 µM, the GI50 (HL-60) was 2.52 µM (inactive) and the GI50 (HOP-62) was 25.8 µM (inactive). The GI50 (HOP-92) was 21.3 µM (inactive), the GI50 (HT-29) was 20.3 µM (inactive) and the GI50 (Hs-578T) was 22.1 µM (inactive). The GI50 (IGROV-1) was 6.38 µM (inactive), the GI50 (K562) was 5.2 µM (inactive) and the GI50 (KM12) was 24 µM (inactive). The GI50 (LOX IMVI) was 18.7 µM (inactive), the GI50 (M14) was 24.3 µM (inactive) and the GI50 (MCF7) was 16.8 µM (inactive). For the same compound, the GI50 (MDA-MB-231) was 34.5 µM (inactive), the GI50 (MDA-MB-435) was 21 µM (inactive) and the GI50 (MDA-N) was 20 µM (inactive). For the same compound, the GI50 (MOLT-4) was 4.01 µM (inactive), the GI50 (Malme-3M) was 18.7 µM (inactive) and the GI50 (NCI-H226) was 25.1 µM (inactive). The GI50 (NCI-H23) was 25.8 µM (inactive), the GI50 (NCI-H460) was 25.9 µM (inactive) and the GI50 (NCI-H522) was 2.28 µM (inactive). For the same compound, the GI50 (NCI/ADR-RES) was 39.8 µM (inactive), the GI50 (OVCAR-3) was 40.3 µM (inactive) and the GI50 (OVCAR-4) was 20.1 µM (inactive). For the same compound, the GI50 (OVCAR-5) was 40 µM (inactive), the GI50 (OVCAR-8) was 33 µM (inactive) and the GI50 (PC-3) was 23.6 µM (inactive). The GI50 (RPMI-8226) was 25.7 µM (inactive), the GI50 (RXF 393) was 19.8 µM (inactive) and the GI50 (SF-268) was 27.9 µM (inactive). For the same compound, the GI50 (SF-295) was 31.4 µM (inactive), the GI50 (SF-539) was 23.1 µM (inactive) and the GI50 (SK-MEL-28) was 17.1 µM (inactive). For the same compound, the GI50 (SK-MEL-2) was 23.1 µM (inactive), the GI50 (SK-MEL-5) was 19.5 µM (inactive) and the GI50 (SK-OV-3) was 40.6 µM (inactive). The GI50 (SN12C) was 22.5 µM (inactive), the GI50 (SNB-19) was 22.5 µM (inactive) and the GI50 (SNB-75) was 23.9 µM (inactive). The GI50 (SR) was 3.76 µM (inactive), the GI50 (SW-620) was 20.6 µM (inactive) and the GI50 (T47D) was 48.5 µM (inactive). For the same compound, the GI50 (TK-10) was 21 µM (inactive), the GI50 (U-251) was 23.9 µM (inactive) and the GI50 (UACC-257) was 19.7 µM (inactive). For the same compound, the GI50 (UACC-62) was 19.1 µM (inactive) and the GI50 (UO-31) was 22.2 µM (inactive).

For `CCN(CC)C(=O)CCN1CC1`, the GI50 (786-0) was > 10 µM (inactive), the GI50 (A498) was > 10 µM (inactive) and the GI50 (A549) was > 10 µM (inactive). The GI50 (ACHN) was > 10 µM (inactive), the GI50 (BT-549) was > 10 µM (inactive) and the GI50 (CAKI-1) was > 10 µM (inactive). For the same compound, the GI50 (CCRF-CEM) was > 10 µM (inactive), the GI50 (COLO 205) was > 10 µM (inactive) and the GI50 (DU-145) was > 10 µM (inactive). The GI50 (EKVX) was > 10 µM (inactive), the GI50 (HCC 2998) was > 10 µM (inactive) and the GI50 (HCT-116) was > 10 µM (inactive). For the same compound, the GI50 (HCT-15) was greater than 10 µM, the GI50 (HL-60) was > 10 µM (inactive) and the GI50 (HOP-62) was > 10 µM (inactive). For the same compound, the GI50 (HOP-92) was > 10 µM (inactive), the GI50 (HT-29) was > 10 µM (inactive) and the GI50 (Hs-578T) was > 10 µM (inactive). The GI50 (IGROV-1) was > 10 µM (inactive), the GI50 (K562) was > 10 µM (inactive) and the GI50 (KM12) was > 10 µM (inactive). For the same compound, the GI50 (LOX IMVI) was > 10 µM (inactive), the GI50 (M14) was > 10 µM (inactive) and the GI50 (MCF7) was > 10 µM (inactive). For the same compound, the GI50 (MDA-MB-231) was > 10 µM (inactive), the GI50 (MDA-MB-435) was > 10 µM (inactive) and the GI50 (MDA-N) was > 10 µM (inactive). The GI50 (MOLT-4) was > 10 µM (inactive), the GI50 (Malme-3M) was > 10 µM (inactive) and the GI50 (NCI-H226) was > 10 µM (inactive). For the same compound, the GI50 (NCI-H23) was > 10 µM (inactive), the GI50 (NCI-H460) was > 10 µM (inactive) and the GI50 (NCI-H522) was > 10 µM (inactive). The GI50 (NCI/ADR-RES) was > 10 µM (inactive), the GI50 (OVCAR-3) was > 10 µM (inactive) and the GI50 (OVCAR-4) was > 10 µM (inactive). For the same compound, the GI50 (OVCAR-5) was > 10 µM (inactive), the GI50 (OVCAR-8) was > 10 µM (inactive) and the GI50 (PC-3) was > 10 µM (inactive). For the same compound, the GI50 (RPMI-8226) was > 10 µM (inactive), the GI50 (RXF 393) was > 10 µM (inactive) and the GI50 (SF-268) was > 10 µM (inactive). The GI50 (SF-295) was > 10 µM (inactive), the GI50 (SF-539) was > 10 µM (inactive) and the GI50 (SK-MEL-28) was > 10 µM (inactive). For the same compound, the GI50 (SK-MEL-2) was > 10 µM (inactive), the GI50 (SK-MEL-5) was > 10 µM (inactive) and the GI50 (SK-OV-3) was > 10 µM (inactive). The GI50 (SN12C) was > 10 µM (inactive), the GI50 (SNB-19) was > 10 µM (inactive) and the GI50 (SNB-75) was > 10 µM (inactive). For the same compound, the GI50 (SR) was > 10 µM (inactive), the GI50 (T47D) was > 10 µM (inactive) and the GI50 (TK-10) was > 10 µM (inactive). For the same compound, the GI50 (U-251) was > 10 µM (inactive), the GI50 (UACC-257) was > 10 µM (inactive) and the GI50 (UACC-62) was > 10 µM (inactive). For the same compound, the GI50 (UO-31) was > 10 µM (inactive).
